Results from US10253069B2, “Compositions and methods for regulating arterial tone” (University of Virginia Patent Foundation, priority 2012, dated 2019).

Assays:
thoracodorsal arteries = test: cGMP assay on thoracodorsal arteries; parameters: species or system mouse
Description: Isolated thoracodorsal arteries were cannulated and pressurized to 80 mmHg as previously described^13. Arteries were perfused with 5 μM Scr X or Hb α X with addition of 0.5 mmol/L of the phosphodiesterase inhibitor 3-isobutyl-1-methylxanthine (IBMX) (all conditions) or 100 μmol/L the nitric oxide synthase inhibitor L-NG-Nitroarginine Methyl Ester (L-NAME) for 20 minutes. Arteries were then stimulated with 50 μM phenylephrine for 10 minutes and immediately immersed in lysis buffer provided in the cGMP XP assay Kit (Cell Signaling) according to manufactures instructions. Briefly, a competition enzyme-linked immunoassay was used to generate a standard curve of known cGMP concentrations followed by calculating cGMP concentrations of experimental samples. The cGMP concentration in experimental samples was normalized to total protein concentration.

[1] = Blood pressure by radio telemetry, C57BL/6 mice; type: in vivo, mouse; conditions: single bolus 0.125 mg/kg intraperitoneal
Description: Blood pressure was measured in conscious wildtype or eNOS^−/− mice under unrestrained conditions using implanted radio telemetry units. Continuous blood pressure measurements were recorded using Dataquest A.R.T. 20 software (DSI). To do so, mice were anesthetized with isoflurane and the catheters (TA11PA-C10, Data Sciences International (DSI)) were implanted in the left carotid artery. The catheter was tunneled through to the radiotransmitter, which was placed in a subcutaneous pouch along the flank. Mice were allowed to recover for seven days after surgery to regain normal circadian rhythms before arterial pressure measurements and experiments were initiated. Thirty minutes prior to peptide injection, continuous blood pressure readings were recorded. Then, a bolus injection of Scr X or Hb α X peptide, or saline was administered via an intraperitoneal injection at 0.125 mg/kg. One hour post-injection, blood pressure was recorded for a 30 minute duration. The change in blood pressure was calculated by subtracting the average pre injection blood pressure from the average post-injection blood pressure.

eNOS and Hb α complex = target: T1, eNOS and Hb α complex (Mus musculus, UniProt P70313); test: Proximity ligation assay for eNOS and Hb α on thoracodorsal arteries
T1 construct: from tissue; host or cells: isolated mouse thoracodorsal arteries
T1 sequence (P70313 2-1202 limits assumed): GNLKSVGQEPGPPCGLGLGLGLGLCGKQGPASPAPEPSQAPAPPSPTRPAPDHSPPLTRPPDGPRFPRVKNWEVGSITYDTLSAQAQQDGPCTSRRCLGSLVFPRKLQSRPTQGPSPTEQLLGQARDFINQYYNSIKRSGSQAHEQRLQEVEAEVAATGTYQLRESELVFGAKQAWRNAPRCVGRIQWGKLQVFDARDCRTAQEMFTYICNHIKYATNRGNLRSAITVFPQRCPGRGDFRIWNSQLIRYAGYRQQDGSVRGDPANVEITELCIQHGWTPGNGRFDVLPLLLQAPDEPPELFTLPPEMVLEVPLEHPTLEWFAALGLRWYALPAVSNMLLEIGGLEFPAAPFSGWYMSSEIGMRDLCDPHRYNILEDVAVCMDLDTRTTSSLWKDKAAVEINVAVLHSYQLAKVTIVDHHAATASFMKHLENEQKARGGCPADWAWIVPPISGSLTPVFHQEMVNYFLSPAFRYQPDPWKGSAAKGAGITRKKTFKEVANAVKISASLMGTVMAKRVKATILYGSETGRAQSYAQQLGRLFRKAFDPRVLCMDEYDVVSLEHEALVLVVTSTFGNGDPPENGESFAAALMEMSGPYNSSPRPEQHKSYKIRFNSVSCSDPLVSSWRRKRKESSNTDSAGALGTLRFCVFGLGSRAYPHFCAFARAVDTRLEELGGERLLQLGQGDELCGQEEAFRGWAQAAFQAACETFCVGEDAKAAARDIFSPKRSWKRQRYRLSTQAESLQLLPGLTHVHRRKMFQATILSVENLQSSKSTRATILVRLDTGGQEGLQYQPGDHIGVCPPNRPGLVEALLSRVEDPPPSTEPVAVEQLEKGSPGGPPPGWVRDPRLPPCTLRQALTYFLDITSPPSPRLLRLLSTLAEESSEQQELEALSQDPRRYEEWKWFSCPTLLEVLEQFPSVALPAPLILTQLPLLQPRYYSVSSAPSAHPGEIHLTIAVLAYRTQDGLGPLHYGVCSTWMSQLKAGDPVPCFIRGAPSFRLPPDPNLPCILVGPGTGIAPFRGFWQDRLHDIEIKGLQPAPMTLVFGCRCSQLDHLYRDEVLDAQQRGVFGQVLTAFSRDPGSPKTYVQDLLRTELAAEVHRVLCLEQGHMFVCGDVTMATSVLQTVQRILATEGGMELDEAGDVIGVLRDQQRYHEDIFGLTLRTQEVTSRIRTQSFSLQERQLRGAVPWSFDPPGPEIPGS
Description: Isolated thoracodorsal arteries were perfused with Scr X or Hb α X peptide (5 μmol/L) for 20 minutes and immediately immersed in 4% paraformaldehyde, paraffin-embedded and sectioned as previously described^12. Next, sections were de-paraffinized, blocked and incubated with 1:500 mouse anti-eNOS (BD Biosciences), 1:500 rabbit anti-Hb α and 1:500 mouse anti-caveolin-1 (BD Biosciences) primary antibodies overnight at 4° C. The following day, secondary antibodies conjugated with oligonucleotide PLA probes were added, ligated and rolling circle amplification with fluorescent oligonucleotides identified positive interaction sites as previously described^9. All images were visualized and captured using an Olympus Fluoview 1000 confocal microscope. For proximity ligation assay quantitation, positive interactions indicated by red punctates on the endothelium were counted and divided by the circumference of the lumen using Metamorph software.

Peptide LSFPTTKTYF (SEQ ID NO:2), first ten amino acids of the Hb α sequence, with HIV-tat tag YGRKKRRQRRR at the N-terminus [Hb α X]
cGMP accumulation with L-NAME (thoracodorsal arteries; phenylephrine stimulation plus L-NAME): reversed
cGMP accumulation (thoracodorsal arteries; phenylephrine stimulation, compared to Scr X peptide): significant increase
Systolic, diastolic and mean arterial blood pressure [1]: significant decrease
Inhibition of association (eNOS and Hb α complex; ex vivo studies): > 90%
Colocalization / protein-protein interaction between eNOS and Hb α (eNOS and Hb α complex; thoracodorsal arteries, 5 μmol/L peptide, 20 minutes): significant loss of protein-protein interaction
